Assay results reported in US8680133B2, “Alkyl indole-3-carbinol-derived antitumor agents” (The Ohio State University Research Foundation, priority 2009, dated 2014).

Columns and labels:
SN12C = experiment: NCI60 screening, Renal Cancer, SN12C; type: cell-based, human
SNB-19 = experiment: NCI60 screening, CNS Cancer, SNB-19; type: cell-based, human
SF-539 = experiment: NCI60 screening, CNS Cancer, SF-539; type: cell-based, human
HS 578T = experiment: NCI60 screening, Breast Cancer, HS 578T; type: cell-based, human
NCI-H23 = experiment: NCI60 screening, Non-Small Cell Lung Cancer, NCI-H23; type: cell-based, human
U251 = experiment: NCI60 screening, CNS Cancer, U251; type: cell-based, human
NCI-H522 = experiment: NCI60 screening, Non-Small Cell Lung Cancer, NCI-H522; type: cell-based, human
OVCAR-3 = experiment: NCI60 screening, Ovarian Cancer, OVCAR-3; type: cell-based, human
K-562 = experiment: NCI60 screening, Leukemia, K-562; type: cell-based, human
ACHN = experiment: NCI60 screening, Renal Cancer, ACHN; type: cell-based, human
MCF7 = experiment: NCI60 screening, Breast Cancer, MCF7; type: cell-based, human
HL-60(TB) = experiment: NCI60 screening, Leukemia, HL-60(TB); type: cell-based, human
SK-MEL-5 = experiment: NCI60 screening, Melanoma, SK-MEL-5; type: cell-based, human
SF-268 = experiment: NCI60 screening, CNS Cancer, SF-268; type: cell-based, human
SR = experiment: NCI60 screening, Leukemia, SR; type: cell-based, human
[1] = system: human tumor cell lines of the cancer screening panel; experiment: NCI 60 cell line screening, whole panel, comparison with OSU-A9; type: cell-based; conditions: OSU-A9 data not shown
T-47D = experiment: NCI60 screening, Breast Cancer, T-47D; type: cell-based, human
[2] = Homo sapiens, read-out: LC50 (the source's name)

Compound: Cc1ccc2c(c1)c(CO)cn2S(=O)(=O)c1ccc(Cl)c([N+](=O)[O-])c1 [OSU-A9M, [1-(4-chloro-3-nitro-benzenesulfonyl)-5-methyl-1H-indol-3-yl]-methanol]
- TGI (SN12C): 2.99E−6
- GI50 (SN12C; Homo sapiens): 1410 nM
- CC50 (SN12C; [2]): 6310 nM
- Percent Growth (SN12C; Log10 Concentration −4.0): −88%
- Percent Growth (SN12C; Log10 Concentration −5.0): −81%
- Percent Growth (SN12C; Log10 Concentration −6.0): 73%
- Percent Growth (SN12C; Log10 Concentration −7.0): 92%
- Percent Growth (SN12C; Log10 Concentration −8.0): 68%
- TGI (SNB-19): 2.97E−6
- GI50 (SNB-19; Homo sapiens): 1620 nM
- CC50 (SNB-19; [2]): 5450 nM
- Percent Growth (SNB-19; Log10 Concentration −4.0): −100%
- Percent Growth (SNB-19; Log10 Concentration −5.0): −100%
- Percent Growth (SNB-19; Log10 Concentration −6.0): 90%
- Percent Growth (SNB-19; Log10 Concentration −7.0): 86%
- Percent Growth (SNB-19; Log10 Concentration −8.0): 88%
- TGI (SF-539): 2.94E−6
- GI50 (SF-539; Homo sapiens): 1600 nM
- CC50 (SF-539; [2]): 5420 nM
- Percent Growth (SF-539; Log10 Concentration −4.0): −100%
- Percent Growth (SF-539; Log10 Concentration −5.0): −100%
- Percent Growth (SF-539; Log10 Concentration −6.0): 88%
- Percent Growth (SF-539; Log10 Concentration −7.0): 94%
- Percent Growth (SF-539; Log10 Concentration −8.0): 93%
- TGI (HS 578T): 3.05E−6
- GI50 (HS 578T; Homo sapiens): 1020 nM
- CC50 (HS 578T; [2]): 9110 nM
- Percent Growth (HS 578T; Log10 Concentration −4.0): −63%
- Percent Growth (HS 578T; Log10 Concentration −5.0): −54%
- Percent Growth (HS 578T; Log10 Concentration −6.0): 51%
- Percent Growth (HS 578T; Log10 Concentration −7.0): 88%
- Percent Growth (HS 578T; Log10 Concentration −8.0): 83%
- TGI (NCI-H23): 2.89E−6
- GI50 (NCI-H23; Homo sapiens): 1530 nM
- CC50 (NCI-H23; [2]): 5460 nM
- Percent Growth (NCI-H23; Log10 Concentration −4.0): −96%
- Percent Growth (NCI-H23; Log10 Concentration −5.0): −97%
- Percent Growth (NCI-H23; Log10 Concentration −6.0): 83%
- Percent Growth (NCI-H23; Log10 Concentration −7.0): 90%
- Percent Growth (NCI-H23; Log10 Concentration −8.0): 92%
- TGI (U251): 2.91E−6
- GI50 (U251; Homo sapiens, U-251): 1570 nM
- CC50 (U251; Homo sapiens, U-251, read-out: LC50 (the source's name)): 5400 nM
- Percent Growth (U251; Log10 Concentration −4.0): −100%
- Percent Growth (U251; Log10 Concentration −5.0): −100%
- Percent Growth (U251; Log10 Concentration −6.0): 87%
- Percent Growth (U251; Log10 Concentration −7.0): 87%
- Percent Growth (U251; Log10 Concentration −8.0): 90%
- TGI (NCI-H522): 3.54E−7
- GI50 (NCI-H522; Homo sapiens): 145 nM
- CC50 (NCI-H522; [2]): 861 nM
- Percent Growth (NCI-H522; Log10 Concentration −4.0): −96%
- Percent Growth (NCI-H522; Log10 Concentration −5.0): −96%
- Percent Growth (NCI-H522; Log10 Concentration −6.0): −58%
- Percent Growth (NCI-H522; Log10 Concentration −7.0): 71%
- Percent Growth (NCI-H522; Log10 Concentration −8.0): 77%
- TGI (OVCAR-3): 4.90E−7
- GI50 (OVCAR-3; Homo sapiens): 225 nM
- CC50 (OVCAR-3; [2]): 1190 nM
- Percent Growth (OVCAR-3; Log10 Concentration −4.0): −100%
- Percent Growth (OVCAR-3; Log10 Concentration −5.0): −100%
- Percent Growth (OVCAR-3; Log10 Concentration −6.0): −46%
- Percent Growth (OVCAR-3; Log10 Concentration −7.0): 102%
- Percent Growth (OVCAR-3; Log10 Concentration −8.0): 100%
- TGI (K-562): 3.03E−6
- GI50 (K-562; Homo sapiens, K562): 1020 nM
- CC50 (K-562; Homo sapiens, K562, read-out: LC50 (the source's name)): 8960 nM
- Percent Growth (K-562; Log10 Concentration −4.0): −70%
- Percent Growth (K-562; Log10 Concentration −5.0): −55%
- Percent Growth (K-562; Log10 Concentration −6.0): 51%
- Percent Growth (K-562; Log10 Concentration −7.0): 106%
- Percent Growth (K-562; Log10 Concentration −8.0): 98%
- TGI (ACHN): 3.14E−6
- GI50 (ACHN; Homo sapiens): 1760 nM
- CC50 (ACHN; [2]): 5600 nM
- Percent Growth (ACHN; Log10 Concentration −4.0): −100%
- Percent Growth (ACHN; Log10 Concentration −5.0): −100%
- Percent Growth (ACHN; Log10 Concentration −6.0): 99%
- Percent Growth (ACHN; Log10 Concentration −7.0): 93%
- Percent Growth (ACHN; Log10 Concentration −8.0): 98%
- TGI (MCF7): 2.21E−6
- GI50 (MCF7; Homo sapiens): 582 nM
- CC50 (MCF7; [2]): 6090 nM
- Percent Growth (MCF7; Log10 Concentration −4.0): −82%
- Percent Growth (MCF7; Log10 Concentration −5.0): −75%
- Percent Growth (MCF7; Log10 Concentration −6.0): 39%
- Percent Growth (MCF7; Log10 Concentration −7.0): 85%
- Percent Growth (MCF7; Log10 Concentration −8.0): 84%
- TGI (HL-60(TB)): 4.80E−6
- GI50 (HL-60(TB); Homo sapiens): 1550 nM
- CC50 (HL-60(TB); [2]): 32500 nM
- Percent Growth (HL-60(TB); Log10 Concentration −4.0): −67%
- Percent Growth (HL-60(TB); Log10 Concentration −5.0): −32%
- Percent Growth (HL-60(TB); Log10 Concentration −6.0): 69%
- Percent Growth (HL-60(TB); Log10 Concentration −7.0): 84%
- Percent Growth (HL-60(TB); Log10 Concentration −8.0): 91%
- TGI (SK-MEL-5): 2.83E−6
- GI50 (SK-MEL-5; Homo sapiens): 1500 nM
- CC50 (SK-MEL-5; [2]): 5320 nM
- Percent Growth (SK-MEL-5; Log10 Concentration −4.0): −100%
- Percent Growth (SK-MEL-5; Log10 Concentration −5.0): −100%
- Percent Growth (SK-MEL-5; Log10 Concentration −6.0): 82%
- Percent Growth (SK-MEL-5; Log10 Concentration −7.0): 92%
- Percent Growth (SK-MEL-5; Log10 Concentration −8.0): 96%
- TGI (SF-268): 3.01E−6
- GI50 (SF-268; Homo sapiens): 1650 nM
- CC50 (SF-268; [2]): 5490 nM
- Percent Growth (SF-268; Log10 Concentration −4.0): −100%
- Percent Growth (SF-268; Log10 Concentration −5.0): −100%
- Percent Growth (SF-268; Log10 Concentration −6.0): 92%
- Percent Growth (SF-268; Log10 Concentration −7.0): 89%
- Percent Growth (SF-268; Log10 Concentration −8.0): 86%
- TGI (SR): 2.47E−6
- GI50 (SR; Homo sapiens): 371 nM
- CC50 (SR; [2]): > 100000 nM
- Percent Growth (SR; Log10 Concentration −4.0): −46%
- Percent Growth (SR; Log10 Concentration −5.0): −25%
- Percent Growth (SR; Log10 Concentration −6.0): 16%
- Percent Growth (SR; Log10 Concentration −7.0): 94%
- Percent Growth (SR; Log10 Concentration −8.0): 85%
- Potency in suppressing cancer cell growth compared with OSU-A9 [1]: significantly higher potency
- TGI (T-47D): 2.91E−6
- GI50 (T-47D; Homo sapiens, T47D): 1120 nM
- CC50 (T-47D; Homo sapiens, T47D, read-out: LC50 (the source's name)): 7540 nM
- Percent Growth (T-47D; Log10 Concentration −4.0): −61%
- Percent Growth (T-47D; Log10 Concentration −5.0): −65%
- Percent Growth (T-47D; Log10 Concentration −6.0): 56%
- Percent Growth (T-47D; Log10 Concentration −7.0): 93%
- Percent Growth (T-47D; Log10 Concentration −8.0): 95%
